Data set [1] deals with T1, DNA (cytosine-5)-methyltransferase 3A (Homo sapiens, UniProt Q9Y6K1). Description: Inhibition of human C-terminal DNMT3A at 20 uM after 1 hr by fluorescence assay.
Data set [2] has as its target T1, DNA (cytosine-5)-methyltransferase 3A. Briefly: Inhibition of human C-terminal DNMT3A at 32 uM after 1 hr by fluorescence assay.
The nature of data set [3]: Chemical stability of the compound in DMSO by HPLC analysis. Format: physicochemical.
Data set [4] in a line: Antiproliferative activity against human KG1 cells after 2 to 4 days by ATPlite 1step luminescence assay. Format: functional, cell-based. The settings on record: KG-1. Background: In ATP-based viability assays light output follows the ATP content of the culture.
Data set [5] is described as follows: Antiproliferative activity against human KARPAS299 cells after 2 to 4 days by ATPlite 1step luminescence assay. Format: functional, cell-based. The settings on record: KARPAS-299.
Another data set deals with HCT-116. Description: Antiproliferative activity against human HCT116 cells after 2 to 4 days by ATPlite 1step luminescence assay. Format: functional, cell-based.
Data set [6] concerns the target T1, DNA (cytosine-5)-methyltransferase 3A. Description: Inhibition of human C-terminal DNMT3A after 1 hr by fluorescence assay.
The target in data set [7] is DNA (cytosine-5)-methyltransferase 1 (Homo sapiens) (UniProt P26358). Description: Inhibition of human His-DNMT1 using [methyl-3H]SAM as substrate at 32 uM after 2 hrs.
Chain of DNA (cytosine-5)-methyltransferase 1 (Homo sapiens) (P26358 whole entry): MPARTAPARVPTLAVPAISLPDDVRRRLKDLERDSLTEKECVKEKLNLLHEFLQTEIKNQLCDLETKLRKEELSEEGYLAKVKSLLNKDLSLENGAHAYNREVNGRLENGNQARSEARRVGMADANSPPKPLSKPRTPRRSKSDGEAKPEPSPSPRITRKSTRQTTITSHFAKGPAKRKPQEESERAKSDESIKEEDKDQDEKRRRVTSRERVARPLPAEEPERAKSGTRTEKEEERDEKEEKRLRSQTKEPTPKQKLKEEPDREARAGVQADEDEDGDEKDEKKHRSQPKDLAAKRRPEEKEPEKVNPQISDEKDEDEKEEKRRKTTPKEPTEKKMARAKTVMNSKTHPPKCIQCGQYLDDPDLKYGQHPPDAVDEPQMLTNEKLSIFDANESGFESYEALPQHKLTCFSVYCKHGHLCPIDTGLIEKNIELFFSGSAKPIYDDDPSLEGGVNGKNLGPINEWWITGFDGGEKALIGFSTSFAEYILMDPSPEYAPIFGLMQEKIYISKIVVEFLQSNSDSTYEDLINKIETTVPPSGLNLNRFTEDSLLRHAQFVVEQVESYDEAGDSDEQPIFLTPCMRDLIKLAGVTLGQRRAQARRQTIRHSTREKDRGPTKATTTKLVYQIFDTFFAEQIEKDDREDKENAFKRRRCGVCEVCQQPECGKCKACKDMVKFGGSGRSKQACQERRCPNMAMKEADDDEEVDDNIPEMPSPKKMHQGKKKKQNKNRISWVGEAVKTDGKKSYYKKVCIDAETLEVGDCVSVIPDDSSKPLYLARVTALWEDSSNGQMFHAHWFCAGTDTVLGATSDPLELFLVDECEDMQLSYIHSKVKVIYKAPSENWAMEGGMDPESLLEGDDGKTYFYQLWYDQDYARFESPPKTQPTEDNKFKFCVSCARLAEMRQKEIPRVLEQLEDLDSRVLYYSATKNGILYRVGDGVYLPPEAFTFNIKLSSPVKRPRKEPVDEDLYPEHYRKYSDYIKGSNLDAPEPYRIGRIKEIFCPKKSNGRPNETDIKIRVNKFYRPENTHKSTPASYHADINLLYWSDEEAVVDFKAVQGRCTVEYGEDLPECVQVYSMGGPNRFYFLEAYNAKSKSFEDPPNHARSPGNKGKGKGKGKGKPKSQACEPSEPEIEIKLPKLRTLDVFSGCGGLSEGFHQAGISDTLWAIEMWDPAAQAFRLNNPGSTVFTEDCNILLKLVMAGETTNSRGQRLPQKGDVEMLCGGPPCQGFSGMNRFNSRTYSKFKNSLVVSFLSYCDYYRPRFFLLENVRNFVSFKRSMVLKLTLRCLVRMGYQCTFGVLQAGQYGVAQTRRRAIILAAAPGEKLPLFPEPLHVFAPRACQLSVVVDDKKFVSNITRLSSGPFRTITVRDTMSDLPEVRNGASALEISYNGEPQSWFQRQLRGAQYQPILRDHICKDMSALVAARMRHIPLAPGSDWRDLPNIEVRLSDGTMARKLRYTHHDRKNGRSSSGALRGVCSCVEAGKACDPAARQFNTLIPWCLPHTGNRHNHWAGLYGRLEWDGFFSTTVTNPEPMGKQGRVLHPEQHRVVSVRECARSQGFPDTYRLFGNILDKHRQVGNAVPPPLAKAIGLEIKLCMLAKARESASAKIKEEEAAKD
For data set [8] the target is unchanged. Briefly: Inhibition of human His-DNMT1 using [methyl-3H]SAM as substrate at 100 uM after 2 hrs.
Data set [9] can be described thus: Chemical stability of the compound after 30 mins by LC-MS analysis in presence of glutathione. The settings on record: 0.5 h. Format: physicochemical.

T1 sequence (Q9Y6K1 whole entry, looked up): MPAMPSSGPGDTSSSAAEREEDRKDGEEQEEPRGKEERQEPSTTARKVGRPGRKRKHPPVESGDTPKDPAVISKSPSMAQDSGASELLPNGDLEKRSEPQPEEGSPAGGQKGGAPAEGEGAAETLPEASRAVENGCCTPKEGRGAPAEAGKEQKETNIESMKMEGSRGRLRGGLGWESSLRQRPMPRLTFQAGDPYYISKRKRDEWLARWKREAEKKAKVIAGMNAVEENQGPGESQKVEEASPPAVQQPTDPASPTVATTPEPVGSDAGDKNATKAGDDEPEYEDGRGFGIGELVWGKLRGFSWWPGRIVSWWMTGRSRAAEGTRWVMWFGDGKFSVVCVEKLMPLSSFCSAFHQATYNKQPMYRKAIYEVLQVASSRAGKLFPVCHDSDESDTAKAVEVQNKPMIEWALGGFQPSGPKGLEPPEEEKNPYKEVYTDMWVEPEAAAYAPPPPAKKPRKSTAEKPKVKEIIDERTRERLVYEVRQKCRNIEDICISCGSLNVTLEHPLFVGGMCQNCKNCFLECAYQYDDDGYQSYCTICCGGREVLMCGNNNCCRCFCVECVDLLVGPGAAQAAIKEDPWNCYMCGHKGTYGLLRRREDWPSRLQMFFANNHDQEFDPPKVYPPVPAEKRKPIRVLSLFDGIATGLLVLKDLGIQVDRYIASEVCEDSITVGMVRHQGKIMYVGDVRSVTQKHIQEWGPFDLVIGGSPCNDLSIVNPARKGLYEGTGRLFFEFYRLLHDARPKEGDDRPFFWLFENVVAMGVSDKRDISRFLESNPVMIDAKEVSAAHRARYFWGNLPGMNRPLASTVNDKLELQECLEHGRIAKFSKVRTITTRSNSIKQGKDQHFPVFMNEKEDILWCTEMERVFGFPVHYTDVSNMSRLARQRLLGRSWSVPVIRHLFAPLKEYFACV

In general, inhibition refers to how much of the control response was suppressed. A low value points to little suppression. As for `CC(C)SC(C(=O)c1ccc(Cl)cc1)n1cnc2ccccc21` (stereo unspecified), in data set [1], the inhibition is 5%.

Compound `O=C(c1ccc(Cl)cc1)C(CSCc1ccco1)n1cnc2ccccc21` (stereo unspecified) returned an inhibition in data set [2] of 55%.

On to `O=C(/C(=C/C=C/c1ccccc1)n1cnc2ccccc21)c1ccc(Cl)cc1`, for which, in [2], the inhibition is 0%. Besides, the Stability result in data set [3] is “Stable”.

With `CCSCC(C(=O)c1ccc(Cl)cc1)n1cnc2c(N)ncnc21` (stereo unspecified), the inhibition in data set [2] was 0%.

As to `O=C(c1ccc(Cl)cc1)C(CSCc1ncccn1)n1cnc2ccccc21` (stereo unspecified), the inhibition in [2] was 43%.

On to `CCSC(C(=O)c1ccc(Cl)cc1)n1cnc2ccccc21` (stereo unspecified), for which the inhibition in [1] came to 15%.

In data set [1], `CCSCC(C(=O)c1ccc(Cl)cc1)n1cccn1` (stereo unspecified) showed an inhibition of 17%.

As to `CCSCC(Cn1cccn1)C(=O)c1ccc(Cl)cc1` (stereo unspecified), the inhibition in data set [1] was 18%.

What is called EC50 is the concentration that produces a half-maximal response. Consider `CCSCC(C(=O)c1ccc(OC)cc1)n1cnc2ccccc21` (stereo unspecified), for which the inhibition in data set [2] is 0%. Besides, the EC50 (in data set [4]; in data set [5]; in the data set on HCT-116) was greater than 10 µM each time.

For `O=C(c1ccc(Cl)cc1)C(CSCC1CCCC1)n1cnc2ccccc21` (stereo unspecified), in [2], the inhibition amounted to 36%.

With `CN(C)/C=C(/C(=O)c1ccc(Cl)cc1)n1cnc2ccccc21`, in data set [2], the inhibition was determined as 0%. The Stability entry in data set [3] is “Stable”.

In [1], `CCSCC(C(=O)c1ccc(Cl)cc1)n1ccnc1` (stereo unspecified) gave an inhibition of 43%.

Consider `CCSCC(C(=O)c1ccc(Cl)cc1)n1cnc2ccccc21` (stereo unspecified), for which a half-maximal response in [6] (EC50) required 3 µM. In addition, the inhibition is 70% in data set [1], 45% in [2], 70% in [7] and 22% in data set [8]. The Stability entry in [3] is listed as “Unstable”.

Take `Cc1cc(Nc2ccc(NC(=O)c3ccc(Nc4ccnc5ccccc45)cc3)cc2)nc(N)n1`: the EC50 was 4.4 µM in data set [4], 1.8 µM in data set [5] and greater than 10 µM with HCT-116.

The compound `CCSCC(C(=O)c1ccc(Cl)c(Cl)c1)n1cnc2ccccc21` (stereo unspecified) showed an inhibition in data set [2] of 38%. For the same compound, the EC50 is 3.7 µM in [4], greater than 10 µM in [5] and 3.1 µM in the data set on HCT-116.

In the case of `CCOCC(C(=O)c1ccc(Cl)cc1)n1cnc2ccccc21` (stereo unspecified), the inhibition in [2] was 63%.

Compound `CC(C)(C)SC(C(=O)c1ccc(Cl)cc1)n1cnc2ccccc21` (stereo unspecified) returned an inhibition in data set [1] of 10%.

In turn, `CCOC(c1ccc(Cl)cc1)C(CSCC)n1cnc2ccccc21` (stereo unspecified) gave an inhibition in data set [1] of 9%.

`CCSCC(Cn1cnc2ccccc21)C(=O)c1ccc(Cl)cc1` (stereo unspecified) displayed an inhibition in data set [1] of 23%.

Turning to `CCSCC(Cn1ccnc1)C(=O)c1ccc(Cl)cc1` (stereo unspecified), the inhibition in data set [1] was determined as 9%.

`O=C(Cn1cnc2ccccc21)c1ccc(Cl)cc1`: the inhibition in [2] was determined as 12%.

In the case of `CCSCC(C(=O)c1ccc(Cl)cc1)n1cnc2ncnc(N)c21` (stereo unspecified), the inhibition in [2] was determined as 54%.

`CCOCC(C(=O)c1ccc(Cl)cc1)n1cnc2ncnc(N)c21` (stereo unspecified) came in with an EC50 in [6] of 2.1 µM. Also, the inhibition is 70% in [2] and 29% in [8]. Moreover, the Stability entry in [3] is “Unstable”.

In [1], `CC(C)SCC(C(=O)c1ccc(Cl)cc1)n1cnc2ccccc21` (stereo unspecified) gave an inhibition of 43%.

Consider `O=C(c1ccc(Cl)cc1)C(CSCc1ccccc1)n1cnc2ccccc21` (stereo unspecified), for which the inhibition in [1] was 69%; in [2] it was 25%.

Take `CCSCC(C(=O)c1ccccc1)n1cnc2ccccc21` (stereo unspecified): the inhibition in data set [2] amounted to 34%.

Regarding `CCSCC(C(O)c1ccc(Cl)cc1)n1cnc2ccccc21` (stereo unspecified), in data set [1], the inhibition turned out to be 4%.

Compound `COc1ccc(CSCC(C(=O)c2ccc(Cl)cc2)n2cnc3ccccc32)cc1` (stereo unspecified) registered an inhibition in [2] of 34%.

Take `O=C(c1ccc(Cl)cc1)C(SC1CCCCC1)n1cnc2ccccc21` (stereo unspecified): the inhibition in [1] turned out to be 21%.

In turn, `CC(C)(C)SCC(C(=O)c1ccc(Cl)cc1)n1cnc2ccccc21` (stereo unspecified) gave an inhibition in data set [1] of 40%.

On to `C=C(C(=O)c1ccc(Cl)cc1)n1cnc2ccccc21`, for which a half-maximal effect in [6] (EC50) was put at 4 µM. For the same compound, in [2], the inhibition is 81%. In addition, the Stability result in data set [9] was “Unstable”.

As for `CCSCC(C(OC)c1ccc(Cl)cc1)n1cnc2ccccc21` (stereo unspecified), the inhibition in data set [1] stood at 5%.

For `O=C(c1ccc(Cl)cc1)C(CSCc1cccc([N+](=O)[O-])c1)n1cnc2ccccc21` (stereo unspecified), the inhibition in data set [2] is 40%.

On to `O=C(c1ccc(Cl)cc1)C(CSC1CCCCC1)n1cnc2ccccc21` (stereo unspecified), for which the inhibition in data set [1] was 44%.

`O=C(c1ccc(Cl)cc1)C(CSc1ncc[nH]1)n1cnc2ccccc21` (stereo unspecified) showed an inhibition in data set [2] of 38%.

These data come from ChEMBL document CHEMBL3603802, “Design and synthesis of new non nucleoside inhibitors of DNMT3A” (Bioorg Med Chem, 2015).
